# In paper PMC5706701, “Development of a homogenous high-throughput assay for inositol hexakisphosphate kinase 1 activity” (PLoS ONE, 2017):
# Where a name gives a salt, the structure may show the parent alone.
# Molecular target: T1, Human IP6K1 (Homo sapiens, UniProt Q92551)
# T1 construct: GST (N, cleaved yes); made in house; host or cells: C43 E. coli, pGEX-6P-2
# Assay: IP6K1 high-throughput screen of the Sigma LOPAC (ADP-Glo Max, single point);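 note: final compound concentration 10µM in 5% DMSO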
# Type: biochemical
# [1] = LOPAC single-point screen, ADP-Glo Max luminescence raw signal per well
# [2] = LOPAC single-point screen, Z-score from plate average and StDev
# [3] = Sigma LOPAC single-point screen, ADP-Glo Max raw signal per well
# [4] = Sigma LOPAC single-point screen, Z-score from plate average and StDev
# [5] = LOPAC single-point screen, Z-score relative to plate average and StDev
# [6] = LOPAC single-point screen, ADP-Glo Max raw signal per well
# [7] = LOPAC single-point screen, Z-score from raw signal with plate average and StDev
# [8] = LOPAC single-point screen, Z-score against plate average and StDev
# T1 sequence (Q92551 whole entry): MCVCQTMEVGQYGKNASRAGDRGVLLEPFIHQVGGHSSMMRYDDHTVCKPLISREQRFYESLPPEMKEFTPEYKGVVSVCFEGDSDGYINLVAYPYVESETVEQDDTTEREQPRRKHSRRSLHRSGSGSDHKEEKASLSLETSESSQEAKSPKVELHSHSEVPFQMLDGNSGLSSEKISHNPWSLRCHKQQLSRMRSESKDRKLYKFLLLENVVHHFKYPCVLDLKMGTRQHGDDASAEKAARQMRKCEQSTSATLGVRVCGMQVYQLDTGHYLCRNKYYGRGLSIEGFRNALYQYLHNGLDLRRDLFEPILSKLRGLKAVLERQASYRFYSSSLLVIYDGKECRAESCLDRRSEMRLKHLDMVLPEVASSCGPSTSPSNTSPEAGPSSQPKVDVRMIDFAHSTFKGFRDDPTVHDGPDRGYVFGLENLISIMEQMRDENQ
compound,measurement,setting,value
CCc1cc(Cl)c(O)c(C(=O)NC[C@@H]2CCCN2CC)c1OC.Cl [S-(-)-Eticlopride hydrochloride],Raw Signal,[1],63565
same,Z-score,[2],1.706
Brc1ccc([C@H]2CN3CCSC3=N2)cc1.O=C(O)C(=O)O [S(-)-p-Bromotetramisole oxalate],Raw Signal,[3],61891
same,Z-score,[4],0.7006
NC(=O)OCC(COC(N)=O)c1ccccc1 [Felbamate],Raw Signal,[3],58283
same,Z-score,[4],0.6328
"C[C@]12CC[C@@H](O)C[C@@H]1CC[C@@H]1[C@@H]2CC[C@]2(C)[C@@H](O)CC[C@@H]12 [5alpha-Androstane-3alpha,17beta-diol]",Raw Signal,[1],54542
same,Z-score,[5],-0.5937
"C[C@H](Cc1ccc2c(c1)OC(C(=O)[O-])(C(=O)[O-])O2)NC[C@H](O)c1cccc(Cl)c1.[Na+].[Na+] [CL 316,243]",Raw Signal,[6],56247
same,Z-score,[7],-0.2934
O=C(CCCN1CCC(O)(c2ccc(Cl)cc2)CC1)c1ccc(F)cc1 [Haloperidol],Raw Signal,[1],51923
same,Z-score,[5],-0.6588
N[C@@H]1CONC1=O (racemic) [DL-Cycloserine],Raw Signal,[6],55454
same,Z-score,[7],-0.4331
CC(N)Cc1c[nH]c2ccc(OCc3cccs3)cc12 (stereo not drawn) [BW 723C86],Raw Signal,[1],55162
same,Z-score,[5],-0.4845
COc1ccc(C(=O)NCc2cccnc2)cc1C(=O)NCc1cccnc1 [Picotamide],Raw Signal,[6],56073
same,Z-score,[8],0.009557
Cc1ccccc1CNc1ncnc2c1ncn2[C@@H]1O[C@H](CO)[C@@H](O)[C@H]1O [Metrifudil],Raw Signal,[6],54359
same,Z-score,[8],-0.005798
CCC(NC(C)C)C(O)c1ccc(O)c(O)c1.CS(=O)(=O)O (stereo not drawn) [Isotharine mesylate],Raw Signal,[6],54100
same,Z-score,[8],-0.04932
CC(N)C(=O)OC(C)(C)Cc1ccc(Cl)cc1 (stereo not drawn) [Alaproclate hydrochloride],Raw Signal,[1],54794
same,Z-score,[5],-0.5494
Cl.NC[C@@H]1O[C@H](C23CC4CC(CC(C4)C2)C3)Cc2c1ccc(O)c2O [A-77636 hydrochloride],Raw Signal,[6],56453
same,Z-score,[7],-0.2572
COCC(=O)O[C@]1(CCN(C)CCCc2nc3ccccc3[nH]2)CCc2cc(F)ccc2[C@@H]1C(C)C [Mibefradil dihydrochloride],Raw Signal,[1],48952
same,Z-score,[5],-0.9143
NC(=O)C(=O)O [Sodium Oxamate],Raw Signal,[6],56283
same,Z-score,[8],0.3175
Cc1ccc(/C(=C\CN2CCCC2)c2ccccn2)cc1.Cl [Triprolidine hydrochloride],Raw Signal,[6],57463
same,Z-score,[8],0.2796
CC(=O)CCCCn1c(=O)c2c(ncn2C)n(C)c1=O [Pentoxifylline],Raw Signal,[6],53271
same,Z-score,[7],-0.1886
CO[C@@]1(NC(=O)CSCC#N)C(=O)N2C(C(=O)O)=C(CSc3nnnn3C)CS[C@@H]21 [Cefmetazole sodium],Raw Signal,[1],53279
same,Z-score,[5],-0.8162
Cn1c(=O)c2[nH]cnc2n(C)c1=O [Theophylline],Raw Signal,[1],53365
same,Z-score,[5],-0.5166
O=C(OCCN1CCOCC1)C1(c2ccccc2)CCCCC1 [PRE-084],Raw Signal,[6],55518
same,Z-score,[8],0.1889
C=CC(N)CCC(=O)O (racemic) [(±)-gamma-Vinyl GABA],Raw Signal,[1],68019
same,Z-score,[2],2.33
CC(=O)c1ccc(S(=O)(=O)NC(=O)NC2CCCCC2)cc1 [Acetohexamide],Raw Signal,[3],64165
same,Z-score,[4],1.101
O=S(=O)(c1cccc2c(I)cccc12)N1CCCNCC1 [ML-7],Raw Signal,[1],65221
same,Z-score,[2],1.8193
CC(N)Cc1c[nH]c2ccc(O)cc12.O=C(O)/C=C\C(=O)O (stereo not drawn) [alpha-Methyl-5-hydroxytryptamine maleate],Z-score,[8],0.02915
COc1cc2c(cc1C(F)(F)F)N(C(=O)Nc1cc(F)cc(-c3cccnc3)c1)CC2 [SB 228357],Raw Signal,[3],58844
same,Z-score,[4],0.7468
CC(C)[C@@]1(NC(=O)[C@@H]2C=C3c4cccc5[nH]cc(c45)C[C@H]3N(C)C2)O[C@@]2(O)[C@@H]3CCCN3C(=O)[C@H](Cc3ccccc3)N2C1=O [Ergocristine],Raw Signal,[1],51436
same,Z-score,[5],-0.7577
O=C(Nc1cc(C(=O)Nc2ccc(S(=O)(=O)[O-])cc2S(=O)(=O)[O-])cc(C(=O)Nc2ccc(S(=O)(=O)[O-])cc2S(=O)(=O)[O-])c1)Nc1cc(C(=O)Nc2ccc(S(=O)(=O)[O-])cc2S(=O)(=O)[O-])cc(C(=O)Nc2ccc(S(=O)(=O)[O-])cc2S(=O)(=O)[O-])c1.[Na+].[Na+].[Na+].[Na+].[Na+].[Na+].[Na+].[Na+] [NF449 octasodium salt],Raw Signal,[1],9787
same,Z-score,[5],-7.495
CC1=C(/C=C/C(C)=C/C=C/C(C)=C/C(=O)Nc2ccc(O)cc2)C(C)(C)CCC1 [Retinoic acid p-hydroxyanilide],Raw Signal,[6],55637
same,Z-score,[8],0.09545
CC(C)C[C@H](NC(=O)[C@@H](O)[C@H](N)Cc1ccccc1)C(=O)O [Bestatin hydrochloride],Raw Signal,[6],54023
same,Z-score,[7],-0.2323
Nc1ncnc2c1ncn2C1CCCO1 (stereo not drawn) [SQ 22536],Raw Signal,[1],63004
same,Z-score,[2],1.356
CCCn1c(=O)c2[nH]c(-c3ccc(OCC(=O)Nc4ccc(C#N)cc4)cc3)nc2n(CCC)c1=O [MRS 1754],Raw Signal,[1],66198
same,Z-score,[2],1.983
COc1ccccc1N1CCN(CCN(C(=O)c2ccc(F)cc2)c2ccccn2)CC1.Cl.Cl [p-MPPF dihydrochloride],Raw Signal,[6],52235
same,Z-score,[7],-0.3627
Cl.NCCC[C@](N)(C(=O)O)C(F)F (racemic),Raw Signal,[1],51967
same,Z-score,[5],-0.6499
Br.CN1CCc2cc(O)c(O)cc2C(c2ccccc2)C1 (stereo not drawn) [SKF 75670 hydrobromide],Raw Signal,[6],56113
same,Z-score,[8],0.01733
COC(=O)c1cc2c(cn1)[nH]c1ccccc12 [Methyl beta-carboline-3-carboxylate],Raw Signal,[6],53830
same,Z-score,[7],-0.2715
CN1[C@@H]2CC[C@H]1C[C@@H](OC(c1ccccc1)c1ccccc1N)C2 (stereo partly drawn) [Aminobenztropine],Raw Signal,[6],58792
same,Z-score,[8],0.1548
CCN(c1nc(N)c(C(=O)NC(=N)N)nc1Cl)C(C)C [5-(N-Ethyl-N-isopropyl)amiloride],Raw Signal,[6],57414
same,Z-score,[8],-0.08791
Cc1cc(O)c2c(c1)C(=O)c1cc(O)cc(O)c1C2=O [Emodin],Raw Signal,[3],61234
same,Z-score,[4],1.232
CC1CNCCN1S(=O)(=O)c1cccc2cnccc12.Cl.Cl (stereo not drawn) [H-7 dihydrochloride],Raw Signal,[1],51716
same,Z-score,[5],-0.7009
O=C(Nc1ccc([N+](=O)[O-])cc1Cl)c1cc(Cl)ccc1O [Niclosamide],Raw Signal,[6],53914
same,Z-score,[8],-0.08057
CSC(=N)N.CSC(=N)N.O=S(=O)(O)O [S-Methylisothiourea hemisulfate],Raw Signal,[6],51759
same,Z-score,[7],-0.4427
CCCn1c(=O)c2[nH]c(C3CCCC3)nc2n(CCCOC(=O)c2ccc(S(=O)(=O)F)cc2)c1=O [FSCPX],Raw Signal,[1],51325
same,Z-score,[5],-0.7803
Cc1[nH]c(=O)c(C#N)cc1-c1ccncc1 [Milrinone],Raw Signal,[6],53863
same,Z-score,[8],-0.08914
O=c1ccn(C2OC(COP(=O)(O)OP(=O)([O-])O)C(O)C2O)c(=O)[nH]1.[Na+] (stereo not drawn) [Uridine 5 -diphosphate sodium],Raw Signal,[3],58265
same,Z-score,[4],0.4354
CN[C@@H](C)[C@H](O)c1ccccc1.CN[C@@H](C)[C@H](O)c1ccccc1.O=S(=O)(O)O [(-)-Ephedrine hemisulfate],Raw Signal,[6],54708
same,Z-score,[7],-0.09323
NS(=O)(=O)c1cc(C(=O)O)c(NCc2ccco2)cc1Cl [Furosemide],Raw Signal,[6],53546
same,Z-score,[7],-0.3292
C[N+]1(CCCCC[N+]2(C)CCCC2)CCCC1.O=C([O-])C(O)C(O)C(=O)O.O=C([O-])C(O)C(O)C(=O)O [Pentolinium di[L(+)-tartrate]],Raw Signal,[3],60160
same,Z-score,[4],0.9689
S(-)-DS 121 hydrochloride,Raw Signal,[6],56472
same,Z-score,[8],0.265
CC(=O)Oc1cc(C(C)C)c(OCCN(C)C)cc1C [Moxisylyte hydrochloride],Raw Signal,[6],54969
same,Z-score,[8],0.0967
CCCCCCCCCCCCCCCC(=O)OC(CC(=O)O)C[N+](C)(C)C.[Cl-] (racemic) [Palmitoyl-DL-Carnitine chloride],Raw Signal,[6],51772
same,Z-score,[7],-0.4405
"CN1CCN(c2ccc3ccccc3n2)CC1.O=C(O)/C=C\C(=O)O.O=C(O)/C=C\C(=O)O [Quipazine, N-methyl-, dimaleate]",Raw Signal,[1],51627
same,Z-score,[5],-0.8542
CC(C)(C)c1ccc(C(O)CCCN2CCC(C(O)(c3ccccc3)c3ccccc3)CC2)cc1 (stereo not drawn) [Terfenadine],Raw Signal,[6],53926
same,Z-score,[7],-0.4076
Nc1nc2c(nc(Br)n2[C@@H]2O[C@@H]3COP(=O)([O-])O[C@H]3[C@H]2O)c(=O)[nH]1.[Na+] [8-Bromo-cGMP sodium],Raw Signal,[6],55323
same,Z-score,[7],-0.4562
CC(C)NC[C@H](O)COc1ccc(CC(N)=O)cc1 [S(-)-Atenolol],Raw Signal,[6],56960
same,Z-score,[7],-0.1679
"O=[N+]([O-])c1cc(O)c(O)c([N+](=O)[O-])c1 [3,5-Dinitrocatechol]",Raw Signal,[6],56696
same,Z-score,[8],0.3105
CC[N+](CC)(CC)CCOc1ccc(/C=C/c2ccccc2)cc1 [MG 624],Raw Signal,[3],57360
same,Z-score,[4],0.4984
"Cc1cccc(C(=O)NCN2CCN(c3ccccc3C#N)CC2)c1.O=C(O)/C=C\C(=O)O [PD 168,077 maleate]",Raw Signal,[1],64247
same,Z-score,[2],1.598
CN(C)CCCCSC(=N)N.Cl.Cl [SKF 91488 dihydrochloride],Raw Signal,[6],55411
same,Z-score,[7],-0.1191
CN(C)CCC=C1c2ccccc2CCc2ccccc21 [Amitriptyline hydrochloride],Raw Signal,[1],54808
same,Z-score,[5],-0.5469
